target: LSD-1 enzyme (Homo sapiens (Human), UniProt O60341); assay: LANCE LSD1/KDM1A demethylase assay (LSD1 histone demethylase biochemical assay); conditions: 1 nM LSD-1 enzyme, 1 hour preincubation at 25° C., 0.4 μM Biotin-labeled Histone H3 peptide substrate
Method: LSD1 Histone Demethylase Biochemical Assay
LANCE LSD1/KDM1A demethylase assay-10 μL of 1 nM LSD-1 enzyme (ENZO BML-SE544-0050) in the assay buffer (50 mM Tris, pH 7.5, 0.01% Tween-20, 25 mM NaCl, 5 mM DTT) were preincubated for 1 hour at 25° C. with 0.8 μL compound/DMSO dotted in black 384 well polystyrene plates. […] Reactions were stopped by addition of 10 μL 1× LANCE Detection Buffer (PerkinElmer CR97-100) supplemented with 1.5 nM Eu-anti-unmodified H3K4 Antibody (PerkinElmer TRF0404), and 225 nM LANCE Ultra Streptavidin (PerkinElmer TRF102) along with 0.9 mM Tranylcypromine-HCl (Millipore 616431). After stopping the reactions plates were incubated for 30 minutes and read on a PHERAstar FS plate reader (BMG Labtech).

Compound | IC50
CN1CCC[C@@H](COc2nc(-c3ccc(C#N)cc3)c(-c3ccc(N(C)CC4CCCO4)nc3)n3ccnc23)C1 (stereo partly drawn) [Example 52, 4-(8-{[(3R)-1-methylpiperidin-3-yl]methoxy}-5-{6-[methyl(tetrahydrofuran-2-ylmethyl)amino]pyridin-3-yl}imidazo[1,2-a]pyrazin-6-yl)benzonitrile] | ≤ 50 nM
CN1CCC[C@@H](COc2nc(-c3ccc(C#N)cc3)c(-c3cnc4c(ccn4C)c3)n3ccnc23)C1 [Example 53, 4-[8-{[(3R)-1-methylpiperidin-3-yl]methoxy}-5-(1-methyl-1H-pyrrolo[2,3-b]pyridin-5-yl)imidazo[1,2-a]pyrazin-6-yl]benzonitrile] | ≤ 50 nM
CN(C)C1CCN(c2nc(-c3ccc(C#N)cc3)c(-c3ccc(N4CCCC4=O)nc3)n3ccnc23)CC1 [Example 57, 4-{8-[4-(dimethylamino)piperidin-1-yl]-5-[6-(2-oxopyrrolidin-1-yl)pyridin-3-yl]imidazo[1,2-a]pyrazin-6-yl}benzonitrile] | ≤ 50 nM
CN(C)C1CCN(c2nc(-c3ccc(C#N)cc3)c(-c3cnc4c(cnn4C)c3)n3ccnc23)CC1 [Example 58, 4-[8-[4-(dimethylamino)piperidin-1-yl]-5-(1-methyl-1H-pyrazolo[3,4-b]pyridin-5-yl)imidazo[1,2-a]pyrazin-6-yl]benzonitrile] | ≤ 50 nM
CN(C)C1CCN(c2nc(-c3ccc(C#N)cc3)c(-c3ccc4c(c3)oc(=O)n4C)n3ccnc23)CC1 [Example 59, 4-[8-[4-(dimethylamino)piperidin-1-yl]-5-(3-methyl-2-oxo-2,3-dihydro-1,3-benzoxazol-6-yl)imidazo[1,2-a]pyrazin-6-yl]benzonitrile] | ≤ 50 nM
CN1C(=O)COc2cc(-c3c(-c4ccc(C#N)cc4)nc(N4CCC(N(C)C)CC4)c4nccn34)ccc21 [Example 60, 4-[8-[4-(dimethylamino)piperidin-1-yl]-5-(4-methyl-3-oxo-3,4-dihydro-2H-1,4-benzoxazin-7-yl)imidazo[1,2-a]pyrazin-6-yl]benzonitrile] | ≤ 50 nM
CN(C)C1CCN(c2nc(-c3ccc(C#N)cc3)c(-c3cc4oc(=O)n(C)c4cc3F)n3ccnc23)CC1 [Example 62, 4-[8-[4-(dimethylamino)piperidin-1-yl]-5-(5-fluoro-3-methyl-2-oxo-2,3-dihydro-1,3-benzoxazol-6-yl)imidazo[1,2-a]pyrazin-6-yl]benzonitrile] | ≤ 50 nM
Cn1ncc2cc(-c3c(-c4ccc(C#N)cc4)nc(OC[C@@H]4CCCN(CCO)C4)c4nccn34)ccc21 [Example 65, 4-[8-{[(3R)-1-(2-hydroxyethyl)piperidin-3-yl]methoxy}-5-(1-methyl-1H-indazol-5-yl)imidazo[1,2-a]pyrazin-6-yl]benzonitrile] | ≤ 50 nM
CN(C)C1CCN(c2nc(-c3ccc(C#N)cc3)c(-c3cnc4c(c3)oc(=O)n4C)n3ccnc23)CC1 [Example 66, 4-[8-[4-(dimethylamino)piperidin-1-yl]-5-(3-methyl-2-oxo-2,3-dihydro[1,3]oxazolo[4,5-b]pyridin-6-yl)imidazo[1,2-a]pyrazin-6-yl]benzonitrile] | ≤ 50 nM
CN(C)C1CCN(c2nc(-c3ccc(C#N)cc3)c(-c3ccc(N4CCOC4=O)nc3)n3ccnc23)CC1 [Example 67, 4-{8-[4-(dimethylamino)piperidin-1-yl]-5-[6-(2-oxo-1,3-oxazolidin-3-yl)pyridin-3-yl]imidazo[1,2-a]pyrazin-6-yl}benzonitrile] | ≤ 50 nM
CN(C)C1CCN(c2nc(-c3ccc(C#N)cc3)c(-c3ccc4c(c3)c(N)nn4C)n3ccnc23)CC1 [Example 68, 4-{5-(3-amino-1-methyl-1H-indazol-5-yl)-8-[4-(dimethylamino)piperidin-1-yl]imidazo[1,2-a]pyrazin-6-yl}benzonitrile] | ≤ 50 nM
Cc1ccc(-c2c(-c3ccc(C#N)cc3)nc(OC[C@@H]3CCCN(C)C3)c3nccn23)cc1C#N [Example 69, 5-(6-(4-cyanophenyl)-8-{[(3R)-1-methylpiperidin-3-yl]methoxy}imidazo[1,2-a]pyrazin-5-yl)-2-methylbenzonitrile] | ≤ 50 nM
Cc1ccc(-c2c(-c3ccc(C#N)cc3)nc(OC[C@@H]3CCCN(C)C3)c3nccn23)cc1CO [Example 70, 4-(5-[3-(hydroxymethyl)-4-methylphenyl]-8-{[(3R)-1-methylpiperidin-3-yl]methoxy}imidazo[1,2-a]pyrazin-6-yl)benzonitrile] | ≤ 50 nM
Cc1cc(-c2c(-c3ccc(C#N)cc3)nc(OC[C@@H]3CCCN(C)C3)c3nccn23)ccc1CO [Example 72, 4-(5-[4-(hydroxymethyl)-3-methylphenyl]-8-{[(3R)-1-methylpiperidin-3-yl]methoxy}imidazo[1,2-a]pyrazin-6-yl)benzonitrile] | ≤ 50 nM
CN1CCC[C@@H](COc2nc(-c3ccc(C#N)cc3)c(-c3ccc4c(c3)C(O)CC4)n3ccnc23)C1 (stereo partly drawn) [Example 73, 4-(5-(3-hydroxy-2,3-dihydro-1H-1-inden-5-yl)-8-{[(3R)-1-methylpiperidin-3-yl]methoxy}imidazo[1,2-a]pyrazin-6-yl)benzonitrile] | ≤ 50 nM
CN1CCC[C@@H](COc2nc(-c3ccc(C#N)cc3)c(-c3cc(F)c4c(c3)C(O)CC4)n3ccnc23)C1 (stereo partly drawn) [Example 79, 4-(5-(7-fluoro-3-hydroxy-2,3-dihydro-1H-inden-5-yl)-8-{[(3R)-1-methylpiperidin-3-yl]methoxy}imidazo[1,2-a]pyrazin-6-yl)benzonitrile] | ≤ 50 nM
CN1CCC[C@@H](COc2nc(-c3ccc(C#N)cc3)c(-c3ccc4c(c3)CCC4O)n3ccnc23)C1 (stereo partly drawn) [Example 80, 4-(5-(1-hydroxy-2,3-dihydro-1H-inden-5-yl)-8-{[(3R)-1-methylpiperidin-3-yl]methoxy}imidazo[1,2-a]pyrazin-6-yl)benzonitrile] | ≤ 50 nM
Cc1cc(-c2c(-c3ccc(C#N)cc3)nc(OC[C@@H]3CCCN(C)C3)c3nccn23)cc(F)c1CO [Example 81, 4-(5-[3-fluoro-4-(hydroxymethyl)-5-methylphenyl]-8-{[(3R)-1-methylpiperidin-3-yl]methoxy}imidazo[1,2-a]pyrazin-6-yl)benzonitrile] | ≤ 50 nM
COC(=O)N(C)Cc1ccc(-c2c(-c3ccc(C#N)cc3)nc(OC[C@@H]3CCCN(C)C3)c3nccn23)cc1F [Example 85, methyl [4-(6-(4-cyanophenyl)-8-{[(3R)-1-methylpiperidin-3-yl]methoxy}imidazo[1,2-a]pyrazin-5-yl)-2-fluorobenzyl]methylcarbamate] | ≤ 50 nM
Cc1ccc(-c2c(-c3ccc(C#N)cc3)nc(OC[C@@H]3CCCN(C)C3)c3nccn23)cc1C(C)O (stereo partly drawn) [Example 87, 4-(5-[3-(1-hydroxyethyl)-4-methylphenyl]-8-{[(3R)-1-methylpiperidin-3-yl]methoxy}imidazo[1,2-a]pyrazin-6-yl)benzonitrile] | ≤ 50 nM
CN1CCC[C@@H](COc2nc(-c3ccc(C#N)cc3)c(-c3cc(F)c4c(c3)CCC4O)n3ccnc23)C1 (stereo partly drawn) [Example 88, 4-(5-(7-fluoro-1-hydroxy-2,3-dihydro-1H-inden-5-yl)-8-{[(3R)-1-methylpiperidin-3-yl]methoxy}imidazo[1,2-a]pyrazin-6-yl)benzonitrile] | ≤ 50 nM
Cc1ccc(-c2c(-c3ccc(C#N)cc3)nc(OC[C@@H]3CCCN(C)C3)c3nccn23)c(CO)c1 [Example 90, 4-(5-[2-(hydroxymethyl)-4-methylphenyl]-8-{[(3R)-1-methylpiperidin-3-yl]methoxy}imidazo[1,2-a]pyrazin-6-yl)benzonitrile] | ≤ 50 nM

Reference: patent US10112950B2, “Substituted imidazo[1,2-a]pyrazines as LSD1 inhibitors” (Incyte Corporation, priority 2014, dated 2018)
